What was measured:
c-KIT = target: T1, c-KIT (Homo sapiens, UniProt P10721); assay: c-KIT recombinant enzyme kinase assay (AlphaScreen); type: biochemical; conditions: 100 ATP, 8 pt
T1 construct: purchased Millipore 14-559K
Procedure, shortened: (§1)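 Recombinant enzyme phosphorylated biotinylated poly(Glu4-Tyr) peptide (30 nM final) with ATP at 10 μM for FLT3-ITD and FLT3-D835Y or 100 μM for c-KIT. Phosphopeptide was detected by AlphaScreen with streptavidin donor and anti-phosphotyrosine (PY20) acceptor beads (10 μg/mL), read at 580 nm, for IC50 determination.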

FLT3-ITD = target: T2, FLT3-ITD (Homo sapiens, UniProt P36888); assay: FLT3-ITD recombinant enzyme kinase assay (AlphaScreen); type: biochemical; conditions: 8 pt; read-out: FLT3_ITD 8 pt: IC50
T2 sequence (P36888 1-993): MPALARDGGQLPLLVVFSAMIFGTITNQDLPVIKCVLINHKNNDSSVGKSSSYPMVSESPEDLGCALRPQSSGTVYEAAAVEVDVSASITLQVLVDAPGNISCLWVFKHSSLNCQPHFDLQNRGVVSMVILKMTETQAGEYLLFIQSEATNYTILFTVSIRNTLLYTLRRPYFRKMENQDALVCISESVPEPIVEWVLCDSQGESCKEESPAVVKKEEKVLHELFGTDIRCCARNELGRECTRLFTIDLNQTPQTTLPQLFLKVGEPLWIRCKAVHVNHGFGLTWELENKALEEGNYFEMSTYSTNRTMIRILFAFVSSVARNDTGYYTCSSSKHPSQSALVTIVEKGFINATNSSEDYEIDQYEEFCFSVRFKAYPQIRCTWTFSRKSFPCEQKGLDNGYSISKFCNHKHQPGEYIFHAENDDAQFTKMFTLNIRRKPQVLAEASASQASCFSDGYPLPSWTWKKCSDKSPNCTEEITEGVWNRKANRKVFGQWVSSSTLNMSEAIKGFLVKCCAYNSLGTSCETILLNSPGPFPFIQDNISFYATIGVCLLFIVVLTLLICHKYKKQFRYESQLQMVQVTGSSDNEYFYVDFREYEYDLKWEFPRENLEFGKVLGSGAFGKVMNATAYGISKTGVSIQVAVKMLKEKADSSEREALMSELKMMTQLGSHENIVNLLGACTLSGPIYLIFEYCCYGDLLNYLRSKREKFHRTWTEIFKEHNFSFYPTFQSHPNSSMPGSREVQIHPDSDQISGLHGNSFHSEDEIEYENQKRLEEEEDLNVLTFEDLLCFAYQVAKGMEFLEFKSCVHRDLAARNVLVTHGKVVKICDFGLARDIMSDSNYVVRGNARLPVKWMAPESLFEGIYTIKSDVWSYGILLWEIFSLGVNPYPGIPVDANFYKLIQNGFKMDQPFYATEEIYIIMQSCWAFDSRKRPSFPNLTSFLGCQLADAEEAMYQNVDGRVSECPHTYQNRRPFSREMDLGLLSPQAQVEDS
Procedure, shortened: as §1

T1 sequence (P10721 26-976): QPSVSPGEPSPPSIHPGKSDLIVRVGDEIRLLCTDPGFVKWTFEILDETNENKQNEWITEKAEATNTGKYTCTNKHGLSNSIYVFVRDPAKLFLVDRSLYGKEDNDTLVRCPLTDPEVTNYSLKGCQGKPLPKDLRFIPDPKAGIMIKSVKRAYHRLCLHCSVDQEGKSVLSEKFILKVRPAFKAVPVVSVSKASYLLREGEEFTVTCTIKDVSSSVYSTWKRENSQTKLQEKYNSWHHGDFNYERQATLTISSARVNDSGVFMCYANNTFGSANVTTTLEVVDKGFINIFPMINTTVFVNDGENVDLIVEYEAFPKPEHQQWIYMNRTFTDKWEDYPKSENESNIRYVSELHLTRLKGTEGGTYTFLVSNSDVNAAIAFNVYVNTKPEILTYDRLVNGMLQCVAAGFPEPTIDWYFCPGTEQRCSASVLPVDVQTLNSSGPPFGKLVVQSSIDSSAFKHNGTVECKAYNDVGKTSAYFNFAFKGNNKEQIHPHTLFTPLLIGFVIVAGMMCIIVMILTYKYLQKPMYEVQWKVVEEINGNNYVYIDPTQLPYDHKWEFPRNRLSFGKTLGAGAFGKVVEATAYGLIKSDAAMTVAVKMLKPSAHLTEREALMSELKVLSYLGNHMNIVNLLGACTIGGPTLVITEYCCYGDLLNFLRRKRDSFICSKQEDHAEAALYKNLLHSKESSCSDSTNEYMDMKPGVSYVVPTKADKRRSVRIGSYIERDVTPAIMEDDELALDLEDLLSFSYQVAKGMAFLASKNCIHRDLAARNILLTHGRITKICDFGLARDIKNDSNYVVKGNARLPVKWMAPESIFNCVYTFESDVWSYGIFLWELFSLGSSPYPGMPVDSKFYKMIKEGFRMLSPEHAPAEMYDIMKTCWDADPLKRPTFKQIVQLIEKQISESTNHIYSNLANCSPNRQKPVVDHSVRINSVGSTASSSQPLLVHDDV

Compound | IC50 (c-KIT) [µM] | IC50 (FLT3-ITD) [µM]
Cn1cnc(Nc2ncc(-c3ccc(CC(=O)Nc4cncc(C(F)(F)F)c4)c(F)c3)cn2)c1 [Compound P-0052, 2-[2-fluoro-4-[2-[(1-methylimidazol-4-yl)amino]pyrimidin-5-yl]phenyl]-N-[5-(trifluoromethyl)-3-pyridyl]acetamide] | 0.0001 to 10 | 0.0001 to 10
CC(=O)c1c[nH]c2ncc(-c3ccc(CC(=O)Nc4ccnc(C(F)(F)F)c4)c(F)c3)cc12 [Compound P-0031, 2-(4-(3-acetyl-1H-pyrrolo[2,3-b]pyridin-5-yl)-2-fluorophenyl)-N-(2-(trifluoromethyl)pyridin-4-yl)acetamide] | 0.0001 to 10 | 0.0001 to 10
CCC(=O)c1c[nH]c2ncc(-c3ccc(CC(=O)Nc4cncc(C(F)(F)F)c4)c(F)c3)cc12 [Compound P-0068, 2-[2-fluoro-4-(3-propanoyl-1H-pyrrolo[2,3-b]pyridin-5-yl)phenyl]-N-[5-(trifluoromethyl)-3-pyridyl]acetamide] | 0.0001 to 10 | 0.0001 to 10
CC(=O)c1c[nH]c2ncc(-c3ccc(CC(=O)Nc4cnc(C)c(C(F)(F)F)c4)c(F)c3)cc12 [Compound P-0063, 2-[4-(3-acetyl-1H-pyrrolo[2,3-b]pyridin-5-yl)-2-fluoro-phenyl]-N-[6-methyl-5-(trifluoromethyl)-3-pyridyl]acetamide] | 0.0001 to 10 | 0.0001 to 10
O=C(Cc1cc(F)c(-c2cnc(Nc3cnn4ccccc34)nc2)cc1F)Nc1cncc(C(F)(F)F)c1 [Compound P-0075, 2-[2,5-difluoro-4-[2-(pyrazolo[1,5-a]pyridin-3-ylamino)pyrimidin-5-yl]phenyl]-N-[5-(trifluoromethyl)-3-pyridyl]acetamide] | – | 0.0001 to 10
Cc1ncc(NC(=O)Cc2ccc(-c3cnc(Nc4cn[nH]c4)nc3)cc2F)cc1C(F)(F)F [Compound P-0027, 2-[2-fluoro-4-[2-(1H-pyrazol-4-ylamino)pyrimidin-5-yl]phenyl]-N-[6-methyl-5-(trifluoromethyl)-3-pyridyl]acetamide] | 0.0001 to 10 | 0.0001 to 10
COc1ncc(NC(=O)Cc2ccc(-c3cnc(Nc4cnn(C)c4)nc3)cc2F)cc1C(F)(F)F [Compound P-0089, 2-[2-fluoro-4-[2-[(1-methylpyrazol-4-yl)amino]pyrimidin-5-yl]phenyl]-N-[6-methoxy-5-(trifluoromethyl)-3-pyridyl]acetamide] | 0.0001 to 10 | 0.0001 to 10
O=C(Cc1ccc(-c2cnc3c(c2)C2(CC2)C(=O)N3)cc1F)Nc1cncc(C(F)(F)F)c1 [Compound P-0064, 2-(2-fluoro-4-(2′-oxo-1′,2′-dihydrospiro[cyclopropane-1,3′-pyrrolo[2,3-b]pyridin]-5′-yl)phenyl)-N-(5-(trifluoromethyl)pyridin-3-yl)acetamide] | 0.0001 to 10 | 0.0001 to 10
COc1ncc(NC(=O)Cc2ccc(-c3cnc4[nH]c(Cl)cc4c3)cc2F)cc1C(F)(F)F [Compound P-0038, 2-[4-(2-chloro-1H-pyrrolo[2,3-b]pyridin-5-yl)-2-fluoro-phenyl]-N-[6-methoxy-5-(trifluoromethyl)-3-pyridyl]acetamide] | – | 0.0001 to 10
O=C(Cc1ccc(-c2cnc3[nH]cc(F)c3c2)cc1F)Nc1cc(Cl)c(C2CC2)cn1 [Compound P-0044, N-(4-chloro-5-cyclopropyl-2-pyridyl)-2-[2-fluoro-4-(3-fluoro-1H-pyrrolo[2,3-b]pyridin-5-yl)phenyl]acetamide] | 0.0001 to 10 | 0.0001 to 10
O=C(Cc1ccc(-c2cnc(Nc3cnn4ccccc34)nc2)cc1F)Nc1ccnc(C(F)(F)F)c1 [Compound P-0033, 2-[2-fluoro-4-[2-(pyrazolo[1,5-a]pyridin-3-ylamino)pyrimidin-5-yl]phenyl]-N-[2-(trifluoromethyl)-4-pyridyl]acetamide] | 0.0001 to 10 | 0.0001 to 10
Cc1ncc(NC(=O)Cc2ccc(-c3cnc4c(c3)C3(CC3)C(=O)N4)cc2F)cc1C(F)(F)F [Compound P-0057, 2-[2-fluoro-4-(2-oxospiro[1H-pyrrolo[2,3-b]pyridine-3,1′-cyclopropane]-5-yl)phenyl]-N-[6-methyl-5-(trifluoromethyl)-3-pyridyl]acetamide] | 0.0001 to 10 | 0.0001 to 10
Cn1cc(Nc2ncc(-c3ccc(CC(=O)NCc4ccc(C(F)(F)F)nc4)c(F)c3)cn2)cn1 [Compound P-0087, 2-[2-fluoro-4-[2-[(1-methylpyrazol-4-yl)amino]pyrimidin-5-yl]phenyl]-N-[[6-(trifluoromethyl)-3-pyridyl]methyl]acetamide] | 0.0001 to 10 | 0.0001 to 10
O=C(Cc1ccc(-c2cnc(Nc3cnn(C(F)F)c3)nc2)c(F)c1)Nc1cc(C(F)(F)F)ccn1 [Compound P-0024, 2-[4-[2-[[1-(difluoromethyl)pyrazol-4-yl]amino]pyrimidin-5-yl]-3-fluoro-phenyl]-N-[4-(trifluoromethyl)-2-pyridyl]acetamide] | 0.0001 to 10 | 0.0001 to 10
Cc1ncc(NC(=O)Cc2ccc(-c3cnc4[nH]nc(C5CC5)c4c3)cc2F)cc1C(F)(F)F [Compound P-0066, 2-(4-(3-cyclopropyl-1H-pyrazolo[3,4-b]pyridin-5-yl)-2-fluorophenyl)-N-(6-methyl-5-(trifluoromethyl)pyridin-3-yl)acetamide] | 0.0001 to 10 | 0.0001 to 10
Cn1cc(Nc2ncc(-c3ccc(CC(=O)NCc4ccc(C(F)(F)F)cn4)cc3)cn2)cn1 [Compound P-0162, 2-[4-[2-[(1-methylpyrazol-4-yl)amino]pyrimidin-5-yl]phenyl]-N-[[5-(trifluoromethyl)-2-pyridyl]methyl]acetamide] | 0.0001 to 10 | 0.0001 to 10
O=C(Cc1ccc(-c2cnc3[nH]nc(C4CC4)c3c2)cc1F)Nc1cncc(C(F)(F)F)c1 [Compound P-0072, 2-[4-(3-cyclopropyl-1H-pyrazolo[3,4-b]pyridin-5-yl)-2-fluoro-phenyl]-N-[5-(trifluoromethyl)-3-pyridyl]acetamide] | 0.0001 to 10 | 0.0001 to 10
COc1ncc(NC(=O)Cc2ccc(-c3cnc4[nH]cc(C(C)=O)c4c3)cc2F)cc1C(F)(F)F [Compound P-0035, 2-[4-(3-acetyl-1H-pyrrolo[2,3-b]pyridin-5-yl)-2-fluoro-phenyl]-N-[6-methoxy-5-(trifluoromethyl)-3-pyridyl]acetamide] | 0.0001 to 10 | 0.0001 to 10
COc1ncc(NC(=O)Cc2ccc(-c3cnc4[nH]cc(F)c4c3)c(F)c2)cc1C(F)(F)F [Compound P-0048, 2-[3-fluoro-4-(3-fluoro-1H-pyrrolo[2,3-b]pyridin-5-yl)phenyl]-N-[6-methoxy-5-(trifluoromethyl)-3-pyridyl]acetamide] | 0.0001 to 10 | –
O=C(Cc1ccc(-c2cnc3[nH]c(Cl)cc3c2)cc1F)Nc1ccnc(C(F)(F)F)c1 [Compound P-0030, 2-[4-(2-chloro-1H-pyrrolo[2,3-b]pyridin-5-yl)-2-fluoro-phenyl]-N-[2-(trifluoromethyl)-4-pyridyl]acetamide] | 0.0001 to 10 | 0.0001 to 10
Cc1cc(CC(=O)Nc2cccc(C(F)(F)F)c2)ccc1-c1cnc2[nH]c(-c3ccccc3)cc2c1 [Compound P-0002, 2-[3-methyl-4-(2-phenyl-1H-pyrrolo[2,3-b]pyridin-5-yl)phenyl]-N-[3-(trifluoromethyl)phenyl]acetamide] | – | 0.0001 to 10
COc1ncc(NC(=O)Cc2cc(F)c(-c3cnc4[nH]c(Cl)cc4c3)cc2F)cc1C(F)(F)F [Compound P-0045, 2-[4-(2-chloro-1H-pyrrolo[2,3-b]pyridin-5-yl)-2,5-difluoro-phenyl]-N-[6-methoxy-5-(trifluoromethyl)-3-pyridyl]acetamide] | – | 0.0001 to 10
O=C(Cc1ccc(-c2cnc(Nc3cnn4ccccc34)nc2)cc1)Nc1cncc(C(F)(F)F)c1 [Compound P-0074, 2-[4-[2-(pyrazolo[1,5-a]pyridin-3-ylamino)pyrimidin-5-yl]phenyl]-N-[5-(trifluoromethyl)-3-pyridyl]acetamide] | – | 0.0001 to 10
COc1ncc(NC(=O)Cc2ccc(-c3cnc4[nH]c(Cl)cc4c3)c(F)c2)cc1C(F)(F)F [Compound P-0046, 2-[4-(2-chloro-1H-pyrrolo[2,3-b]pyridin-5-yl)-3-fluoro-phenyl]-N-[6-methoxy-5-(trifluoromethyl)-3-pyridyl]acetamide] | – | 0.0001 to 10

— patent US10160747B2, “Compounds and methods for kinase modulation, and indications therefor” (Plexxikon Inc., priority 2016, dated 2018)
